Data as given in patent US12054447B2, “PCNA inhibitors” (City of Hope, priority 2015, dated 2024).
“Also recorded” adds a separate entry of the source.

Columns and labels:
[1] = Liver microsome assay; format: in vitro ADME, human
Text: FIG. 11. AOH1160 stability in a liver microsome assay. Liver is a major organ responsible for drug metabolism. We tested the stability of AOH1160 in a liver microsome assay. By analyzing the metabolites, we determined a major pathway responsible for AOH1160 metabolism.
Liver is a major organ responsible for drug metabolism. We tested the stability of AOH1160 in a liver microsome assay (FIG. 11). By analyzing the metabolites, we determined a major pathway responsible for AOH1160 metabolism.

[2] = tested on: SK-N-AS; assay: Cell growth, CellTitor-Glo assay, 72 h; format: cell-based; conditions: Homo sapiens
Procedure: (§1) The human NB cell lines, SK-N-DZ, SK-N-BE(2)c, SK-N-AS, and LAN-5 obtained from the American Type Culture Collection (Rockville, MD), were cultured in DMEM with 10% fetal bovine serum (FBS), 100 units/ml penicillin, and 100 μg/ml streptomycin in the presence of 5% CO2 at 37° C. Human PBMCs from a healthy donor were purchased from Sanguine BioSciences (Valencia, CA) and grown in RPMI1640 with 10% FBS, 100 units/ml penicillin, 100 μg/ml streptomycin, and 10 ng/ml IL-2 in the presence of 5% CO2 at 37° C. Human embryonic progenitor cell line 7SM0032 was acquired from Millipore (Billerica, MA) and grown in the hEPM-1 Media Kit purchased from the same company. The plasmid pCBASce expresses the rare cutting I-SceI meganuclease. The U20S-derived cell lines, DR-GFP and EJ5-GFP, each contain a stably transfected reporter gene for DSB repair mediated by HR and end joining (EJ), respectively. These cell lines were cultured in DMEM medium with 10% FBS at 37° C. in the presence of 5% CO2.
(§2) To measure the effect of the compounds on cell growth, cells were seeded at 3×10^4/ml into a 96-well plate. Once attached, cells were treated with various concentrations of AOH1160 for 72 h. Cell growth was measured by the CellTitor-Glo assay (Promega, Madison, WI) according to the manufacturer's instructions. To measure apoptosis, cells were seeded at 1×10^5/ml onto a chamber slide. Once attached, cells were treated with the 500 nM AOH1160 for 24 h. Cells were fixed and analyzed by a TUNEL assay using the TMR red in situ cell death detection kit (Roche Diagnostics, Indianapolis, IN).

[3] = tested on: SK-N-BE(2)c; assay: Cell growth, CellTitor-Glo assay, 72 h; format: cell-based; conditions: Homo sapiens
Procedure: as §1, §2

[4] = tested on: SK-N-DZ; assay: Cell growth, CellTitor-Glo assay, 72 h; format: cell-based; conditions: Homo sapiens
Procedure: as §1, §2

[5] = tested on: 7SM0032; assay: Cell cycle analysis (PI, flow cytometry); format: cell-based, human; conditions: for cell cycle effect on normal cells: 7SM0032
Procedure: (§3) Cells were seeded at 1×10^5/ml in a 6-well plate. Once attached overnight, cells were treated with or without AOH1160 for 6 or 24 h. After being fixed in 60% ethanol and stained with propidium iodide (PI), cells were analyzed by flow cytometry to determine the cellular PI fluorescence intensity. The flow cytometry data were analyzed by the FlowJo program to model various cell populations.

[6] = tested on: neuroblastoma cells (SH-SY5Y and SK-N-BE(2)c); assay: Cell cycle analysis; format: cell-based
Procedure: as §3

[7] = tested on: non-malignant cells; assay: Toxicity to non-malignant cells; format: cell-based
Procedure: as §2
To improve the anti-tumor potency of the compound while preserving its favorable selectivity, a series of compounds were synthesized and tested. […] The combined improvements in potency and selectivity lead to a significant improvement in the therapeutic window (FIG. 1). AOH1160 was tested in a broad range of non-malignant cells, including human primary mammary epithelial and small airway epithelial cells, and no significant toxicity was found in these cells up to a concentration of 10 μM.

[8] = tested on: small cell lung cancer cells; assay: Killing of small cell lung cancer cells; format: cell-based; conditions: FIG. 14B
[9] = tested on: NB cell lines; assay: Cell viability assay on NB cell lines; format: cell-based, human; conditions: for concentrations that selectively kill neuroblastoma cells: FIG. 14A
Procedure: as §2
To identify small molecule compounds that target the PCNA and FEN1 interface, we started with known crystal structures of the PCNA/FEN1 complex that are available from the RCSB protein database. To improve the likelihood of identifying novel small molecules that specifically target caPCNA, we focused our virtual screen on the binding pocket in PCNA delineated by residues L126 and Y133 and screened databases consisting of more than 6.8 million chemical structures available at the AMRI. A set of 57 compounds identified by the virtual screen was acquired and further tested in a cell viability assay. A compound (AOH39) was selected for further development due to its anti-cancer activity and selectivity.

[10] = tested on: CAKI-1; assay: NCI-60 panel test; format: cell-based; conditions: Homo sapiens; CAKI-1, NCI-60 5-dose study
Procedure: FIG. 7. NCI-60 panel test. The effect of AOH1160 on growth of the NCI-60 panel, which consists of 60 cancer cell lines representing 9 major cancer types, was tested in a 5-dose study. Shown are the Log IC50 values determined for each cell line. […] This study was performed by the National Institute of Cancer.
As observed in FIG. 7, the effect of AOH1160 on growth of the NCI-60 panel, which consists of 60 cancer cell lines representing 9 major cancer types, was tested in a 5-dose study. Shown are the Log IC50 values determined for each cell line.

[11] = molecular target: human TRβ (Homo sapiens, UniProt P10828); assay: Human thyroid hormone receptor beta (TRβ) reporter assay; format: cell-based; conditions: TRβ reporter cells, 24 h
Text: Reporter cells constitutively expressing human TRβ and containing a luciferase reporter gene functionally linked to a TRβ-responsive promoter were purchased from Indigo Biosciences (State College, PA). […] The effect of each compound on TRβ activity was examined by measuring the luciferase reporter gene expression according to the manufacturer's instruction.

[12] = tested on: SK-N-DZ; assay: Clonogenic assay with cisplatin; format: cell-based, human; conditions: cisplatin with or without 500 nM AOH1160 for 18 h, 3 weeks
Procedure: Three hundred human SK-N-DZ NB cells were seeded onto a 60-mm tissue culture dish. Once attached overnight, cells were treated with or without various concentrations of cisplatin in the presence or absence of 500 nM of AOH1160 for 18 h. Cells were washed twice with growth medium and were cultured in fresh medium for 3 weeks to allow surviving cells to form colonies. The medium was changed every 3 days throughout the experiment. The colonies formed under each treatment conditions were counted after being stained with 0.5% crystal violet.

[13] = Pharmacokinetics (PK) of AOH1160 in animals; format: in vivo, Rat; conditions: for AUC(0-inf) / Cmax / Tmax / half-life: rat, in vivo, po, 20 mg/kg, Rat PO 20 mg/kg

Sequence of human TRβ (P10828 whole entry): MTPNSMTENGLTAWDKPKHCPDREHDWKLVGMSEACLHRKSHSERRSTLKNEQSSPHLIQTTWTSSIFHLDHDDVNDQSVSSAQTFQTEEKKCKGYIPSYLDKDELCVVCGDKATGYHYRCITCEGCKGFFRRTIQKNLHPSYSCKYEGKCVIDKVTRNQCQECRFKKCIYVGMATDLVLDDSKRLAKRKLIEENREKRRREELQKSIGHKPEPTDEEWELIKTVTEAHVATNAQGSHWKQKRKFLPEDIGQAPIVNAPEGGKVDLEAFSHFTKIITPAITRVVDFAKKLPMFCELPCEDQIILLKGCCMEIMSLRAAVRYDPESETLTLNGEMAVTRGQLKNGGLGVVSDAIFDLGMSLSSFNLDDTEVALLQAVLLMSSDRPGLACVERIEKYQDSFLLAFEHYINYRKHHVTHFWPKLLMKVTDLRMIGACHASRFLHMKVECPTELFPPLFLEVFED

| SMILES | IC50 [2] | IC50 [3] | IC50 [4] | cell cycle effect on normal cells [5] | cell cycle effect [6] | concentrations that selectively kill small cell lung cancer cells [8] | concentrations that selectively kill neuroblastoma cells [9] | GI50 [10] | other results |
| --- | --- | --- | --- | --- | --- | --- | --- | --- | --- |
| COc1cccc(Oc2ccccc2NC(=O)CNC(=O)c2cccc3ccccc23)c1 [PCNA7/ AOH1996] | 125 nM | 236 nM | 288 nM | exerted little effect on normal cells | caused S/G2 cell cycle arrest | below micromolar concentrations | below micromolar concentrations | 912 nM | stability in a liver microsome assay ([1]; NADPH dependent metabolism): stable to NADPH dependent metabolism; also recorded: stable in a liver microsome assay; toxicity to non-malignant cells ([7]; neural crest stem cells (7SM0032), hSAEC, PBMCs): minimal toxicity to non-malignant cells |
| O=C(CNC(=O)c1cccc2ccccc12)Nc1ccccc1Oc1cccc(O)c1 [PCNA2] | 192 nM | 485 nM | 539 nM |  |  |  |  |  |  |
| O=C(CNC(=O)c1cccc2ccccc12)Nc1ccccc1Oc1ccccc1 [AOH1160] | 108 nM | 326 nM | 238 nM | exerted little effect on normal cells | caused S/G2 cell cycle arrest | below micromolar concentrations | below micromolar concentrations | 355 nM | metabolic pathway in liver microsomes ([1]; human liver microsomes, NADPH): mainly metabolized through mono- and di-hydroxylation in a NADPH-dependent manner; thyroid hormone activity in a TR reporter assay [11]: did not show any thyroid hormone activity; sensitivity to cisplatin (colony formation) [12]: more sensitive to cisplatin treatment in the presence of AOH1160 than in its absence; cell cycle effect ([5]; 7SM0032 cells, 500 nM): doesn't significantly change the cell cycle profiles; toxicity to non-malignant cells compared with AOH39 ([7]; PBMC and 7SM0032 cells): less toxic to non-malignant PBMC and 7SM0032 cells than AOH39; concentration causing significant toxicity (none found up to) ([7]; broad range of non-malignant cells incl. human primary mammary epithelial and small airway epithelial cells): > 10 µM; oral availability ([13]; animals): orally available; AUC(0-inf) ([13]; BID dosing): 429 ± 195 ng·h/mL; Cmax ([13]; BID dosing): 73 ± 23 ng/mL; Tmax ([13]; BID dosing): 6 h; half-life ([13]; BID dosing): 258 ± 102 min; AUC(0-inf) ([13]; Single dosing): 383 ± 110 ng·h/mL; Cmax ([13]; Single dosing): 50 ± 31 ng/mL; Tmax ([13]; Single dosing): 3.3 ± 2.3 h; half-life ([13]; Single dosing): 228 ± 1860 min; IC50 ([9]; Homo sapiens, multiple NB cell lines, read-out: IC50 range over NB cell lines): 180 to 220 nM; increase in compound potency over AOH39 in cell viability assays ([9]; NB cells): 6-7 fold |
| COc1ccc(Oc2ccccc2NC(=O)CNC(=O)c2cccc3ccccc23)cc1 [PCNA6] | 91 nM | 234 nM | 271 nM |  |  |  |  |  |  |
| O=C(CNC(=O)c1cccc2ccccc12)Nc1ccccc1Oc1ccc(O)cc1 [PCNA1] | 157 nM | 490 nM | 467 nM |  |  |  |  |  |  |
